# Patent US20250230138A1, “COMPOUNDS HAVING A T-STRUCTURE FORMED BY AT LEAST FOUR CYCLES FOR USE IN THE TREATMENT OF CANCER AND OTHER INDICATIONS” (TheRas, Inc., priority 2022, published 2025)
# Where two headings read alike, the source gives them in different places.
# Assays:
# [1] = tested on: pAKT in BT474 cells; experiment: Cell-based pAKT HTRF assay in BT474 cells; conditions: BT474 cells, 4 hr incubation, read-out: pAKT inhibition IC50 in BT474 cells
# Procedure, shortened: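 Cells grown in DMEM with 10% FBS were exposed to compounds for 4 hr in 0.25% DMSO, using a 9-point, 3-fold dilution series that starts at 3 μM. Lysates were incubated with d2 and Eu Cryptate antibodies for 4–24 h at room temperature, and HTRF was read at 615 nm emission.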
# [2] = molecular target: Cys242 in human PIK3CA (157-299) (Homo sapiens (Human), UniProt P42336); experiment: Covalent modification assay using MALDI-TOF MS; format: biochemical; conditions: 4 h reaction time point
# Procedure, shortened: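 Covalent adduct formation was read by linear-mode MALDI-TOF with sinapinic acid matrix, reported as modified-protein peak height divided by total protein peak heights. Reactions held PIK3CA (157-299) at 1 or 3.33 μM in HEPES/NaCl/MgCl2 buffer, pH 7.3, sampled after 15 min to 4 h at room temperature.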
# [3] = Homo sapiens, BT-474, Compounds 10-999
# [4] = 3.33 μM protein target, 1:7.5 protein to compound ratio (compounds 1-852)
# [5] = 1 μM protein target, 1:5 protein to compound ratio (compounds 853-1279)
# Chain of Cys242 in human PIK3CA (157-299) (P42336 157-299): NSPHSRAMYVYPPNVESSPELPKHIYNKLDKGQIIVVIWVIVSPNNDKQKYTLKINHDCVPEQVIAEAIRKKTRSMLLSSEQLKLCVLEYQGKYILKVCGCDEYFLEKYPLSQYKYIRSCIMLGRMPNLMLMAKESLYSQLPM
Compound,"IC50 [1, 3]","% of modification [2, 4]",IC50 ([1]; Compounds 1000-1279),"% of modification [2, 5]",IC50 ([1]; Compounds 10-999)
"C=CC(=O)N1Cc2cc(-c3nc(-c4ccc5c(c4)CCN(C)C5)c4ccsc4c3-c3c(F)cc(F)cc3OC(C)C)cnc2C[C@H]1C [Compound 476, 1-((7R)-3-(7-(2,4-difluoro-6-isopropoxyphenyl)-4-(2-methyl-1,2,3,4-tetrahydroisoquinolin-6-yl)thieno[3,2-c]pyridin-6-yl)-7-methyl-7,8-dihydro-1,6-naphthyridin-6(5H)-yl)prop-2-en-1-one]",100 to 1000 nM,A (percent of modification of PIK3CA protein ≥75%),–,–,–
C=CC(=O)N1CCn2nc(-c3nc(-c4ccc(C(=O)N5CCN(C)CC5)cc4)c4ccsc4c3-c3c(F)cc(F)cc3OCCOC)cc2C1C (stereo not shown) [Compound 1096],–,–,< 100 nM,A (percent of modification of PIK3CA protein ≥75%),–
C=CC(=O)N1CCn2nc(-c3nc(-c4ccnc(N(C)C)c4)c4ccsc4c3-c3c(F)cc(F)cc3OCCO)cc2C1C (stereo not shown) [Compound 959],–,–,–,A (percent of modification of PIK3CA protein ≥75%),< 100 nM
"C=CC(=O)N1CCn2nc(-c3nc(-n4cc(C)cn4)c4ccsc4c3-c3ccc(F)cc3OC(C)C)cc2C1 [Compound 317, 1-[2-[7-(4-fluoro-2-isopropoxy-phenyl)-4-(4-methylpyrazol-1-yl)thieno[3,2-c]pyridin-6-yl]-6,7-dihydro-4H-pyrazolo[1,5-a]pyrazin-5-yl]prop-2-en-1-one]",< 100 nM,A (percent of modification of PIK3CA protein ≥75%),–,–,–
C=CC(=O)N1CCn2nc(-c3nc(-c4ccc(C5(F)CN(C)C5)cc4)c4ccsc4c3-c3c(F)cc(F)cc3OCCOC)cc2C1C (stereo not shown) [Compound 1044],–,–,< 100 nM,A (percent of modification of PIK3CA protein ≥75%),–
C=CC(=O)N1CCn2nc(-c3nc(-c4ccc5c(c4)ncn5C)c4ccsc4c3-c3c(F)cc(F)cc3OCCO)cc2[C@H]1C [Compound 651],–,C (25%≤percent of modification <50%),–,–,< 100 nM
C=CC(=O)N1Cc2cc(-c3nc(-c4cnc5c(c4)CNC(=O)C5)c4ccsc4c3-c3c(F)cc(F)cc3OC(C)C)nn2CC1C (stereo not shown) [Compound 495],–,A (percent of modification of PIK3CA protein ≥75%),–,–,< 100 nM
C=CC(=O)N1CCc2ncc(-c3nc(-c4ccc5c(c4)CCNC5)c4ccsc4c3-c3ccc(F)cc3OC)cc2C1 [Compound 86],–,A (percent of modification of PIK3CA protein ≥75%),–,–,< 100 nM
C=CC(=O)N1Cc2cc(-c3nc(-c4ccc5c(c4)CCN(C)C5)c4ccsc4c3-c3c(F)cc(F)cc3OC3CC3)nn2C[C@H]1C [Compound 516],–,A (percent of modification of PIK3CA protein ≥75%),–,–,< 100 nM
C=CC(=O)N1Cc2cc(-c3nc(-c4cnc(C)nc4)c4ccsc4c3-c3c(F)cc(F)cc3OC[C@@H](C)O)nn2C[C@H]1C [Compound 757],–,A (percent of modification of PIK3CA protein ≥75%),–,–,< 100 nM
C=CC(=O)N1CC(n2cc(-c3nc(N4CCC5(CC4)COC5)c4ccsc4c3-c3ccc(F)cc3OCCOC)cn2)C1 [Compound 122],–,A (percent of modification of PIK3CA protein ≥75%),–,–,100 to 1000 nM
C=CC(=O)N1CCn2nc(-c3nc(N4CCS(=O)(=O)CC4)c4ccsc4c3-c3ccc(F)cc3OC(C)C)cc2C1 [Compound 286],–,A (percent of modification of PIK3CA protein ≥75%),–,–,> 3000 nM
C=CC(=O)N1CCn2nc(-c3nc(-c4cnc5cn(C)nc5c4)c4ccsc4c3-c3c(F)cc(F)cc3OCCO)cc2C1C (stereo not shown) [Compound 913],–,–,–,A (percent of modification of PIK3CA protein ≥75%),< 100 nM
C=CC(=O)N1CCc2nc(-c3nc(-c4ccn(C(C)C)c(=O)c4)c4ccsc4c3-c3ccc(F)cc3OCCOC)sc2C1 [Compound 139],–,A (percent of modification of PIK3CA protein ≥75%),–,–,100 to 1000 nM
C=CC(=O)N1CCc2cc(-c3nc(-c4ccc5nn(C)cc5c4)c4ccsc4c3-c3c(F)cc(F)cc3OCCO)nn2CC1 [Compound 1200],–,–,< 100 nM,A (percent of modification of PIK3CA protein ≥75%),–
C=CC(=O)N1CC[C@@H](n2cc(-c3nc(-c4cncc(C#N)c4)c4ccsc4c3-c3c(F)cc(F)cc3OC(C)C)cn2)C1 [Compound 388],–,A (percent of modification of PIK3CA protein ≥75%),–,–,100 to 1000 nM

Compound,"IC50 [1, 3]","% of modification [2, 4]",IC50 ([1]; Compounds 1000-1279),"% of modification [2, 5]",IC50 ([1]; Compounds 10-999)
C=CC(=O)N1CCc2ncc(-c3nc(-c4ccc5c(c4)CNC5=O)c4ccsc4c3-c3c(F)cc(F)cc3OCCOC)cc2C1 [Compound 379],–,A (percent of modification of PIK3CA protein ≥75%),–,–,< 100 nM
C=CC(=O)N1Cc2cc(-c3nc(-c4ccc5c(c4)CNC5=O)c4ccsc4c3-c3c(F)cc(F)cc3OCCOC)nn2C[C@H]1C [Compound 691],–,A (percent of modification of PIK3CA protein ≥75%),–,–,< 100 nM
C=CC(=O)N1Cc2cc(-c3nc(-c4ccc5c(cnn5C)c4)c4ccsc4c3-c3c(F)cc(F)cc3OC)nn2C(C)C1 (stereo not shown) [Compound 854],–,–,–,A (percent of modification of PIK3CA protein ≥75%),< 100 nM
C=CC(=O)N1Cc2cc(-c3nc(-c4cnn(CC(C)(C)O)c4)c4ccsc4c3-c3c(F)cc(F)cc3OCCOC)nn2C[C@H]1C [Compound 514],–,A (percent of modification of PIK3CA protein ≥75%),–,–,< 100 nM
C=C(F)C(=O)N1CCn2nc(-c3nc(-c4ccc(=O)[nH]c4)c4ccsc4c3-c3ccc(F)cc3OC(C)C)cc2C1 [Compound 307],–,A (percent of modification of PIK3CA protein ≥75%),–,–,100 to 1000 nM
C=CC(=O)N1Cc2cc(-c3nc(-c4cnc(C)nc4)c4ccsc4c3-c3c(F)cc(F)cc3OCCO)nn2C(C)C1 (stereo not shown) [Compound 785],–,A (percent of modification of PIK3CA protein ≥75%),–,–,< 100 nM
C=CC(=O)N1CC(n2cc(-c3nc(C4CCN(C(C)=O)CC4)c4ccsc4c3-c3ccc(F)cc3OC)cn2)C1 [Compound 297],–,B (50%<percent of modification <75%),–,–,1000 to 3000 nM
C=CC(=O)N1CCn2nc(-c3nc(-c4ccc(C(=O)N5CC(F)C(F)C5)cc4)c4ccsc4c3-c3c(F)cc(F)cc3OCCOC)cc2C1C (stereo not shown) [Compound 1189],–,–,< 100 nM,A (percent of modification of PIK3CA protein ≥75%),–
C=CC(=O)N1CC[C@@H](n2cc(-c3nc(-c4cnnc(C)c4)c4ccsc4c3-c3c(F)cc(F)cc3OC(C)C)cn2)C1 [Compound 391],–,A (percent of modification of PIK3CA protein ≥75%),–,–,< 100 nM
C=CC(=O)N1CCc2nc(-c3nc(-c4ccc(C(C)(C)C#N)cc4)c4ccsc4c3-c3c(F)cc(F)cc3OCCOC)sc2C1 [Compound 439],–,D (percent of modification <25%),–,–,100 to 1000 nM
"C=CC(=O)N1CCn2nc(-c3nc(-c4ccc(=O)n(C)c4)c4ccsc4c3-c3ccc(F)cc3OCCOC)cc2C1 [Compound 195, 5-[7-[4-fluoro-2-(2-methoxyethoxy)phenyl]-6-(5-prop-2-enoyl-6,7-dihydro-4H-pyrazolo[1,5-a]pyrazin-2-yl)thieno[3,2-c]pyridin-4-yl]-1-methyl-pyridin-2-one]",< 100 nM,A (percent of modification of PIK3CA protein ≥75%),–,–,–
C=CC(=O)N1CCc2cc(-c3nc(-c4cnc5c(c4)CNC(=O)C5)c4ccsc4c3-c3c(F)cc(F)cc3OC(C)C)nn2CC1 [Compound 568],–,A (percent of modification of PIK3CA protein ≥75%),–,–,< 100 nM
C=CC(=O)N1Cc2cc(-c3nc(-c4ccc5c(c4)NC(=O)C5)c4ccsc4c3-c3c(F)cc(F)cc3OCCOC)nn2C[C@H]1C [Compound 779],–,A (percent of modification of PIK3CA protein ≥75%),–,–,< 100 nM
C=CC(=O)N1CC[C@@H](n2cc(-c3nc(-c4ccn(C)c(=O)c4)c4ccsc4c3-c3c(F)cc(F)cc3OC(C)C)cn2)C1 [Compound 386],–,A (percent of modification of PIK3CA protein ≥75%),–,–,< 100 nM
C=CC(=O)N1Cc2cc(-c3nc(-c4cn(C)cn4)c4ccsc4c3-c3c(F)cc(F)cc3OC[C@@H](C)O)nn2C[C@H]1C [Compound 745],–,A (percent of modification of PIK3CA protein ≥75%),–,–,< 100 nM
C=CC(=O)N1CCn2nc(-c3nc(-c4ccc5c(c4)CNC5=O)c4ccsc4c3-c3c(F)cc(F)cc3OCCOC)cc2[C@@H]1C [Compound 545],–,A (percent of modification of PIK3CA protein ≥75%),–,–,< 100 nM
